Measured values as given in ChEMBL document CHEMBL3085759, “Structure-activity relationship (SAR) and preliminary mode of action studies of 3-substituted benzylthioquinolinium iodide as anti-opportunistic infection agents” (Eur J Med Chem, 2013).
Values after ≈ are worked out from the molar mass of the structure shown. Active and inactive are the calls of the source. The calls are words filed in the database; no cut-off is given here.

Legend:
Saccharomyces cerevisiae [1] = assay: Antimicrobial activity against Saccharomyces cerevisiae expressing rad52 mutant gene assessed as increase in sensitivity at 20 umol/L by spectrophotometry relative to wild type; type: functional
Saccharomyces cerevisiae [2] = assay: Antimicrobial activity against Saccharomyces cerevisiae expressing ydj1 mutant gene assessed as increase in sensitivity at 20 umol/L by spectrophotometry relative to wild type; type: functional
Saccharomyces cerevisiae [3] = assay: Antimicrobial activity against Saccharomyces cerevisiae expressing snf2 mutant gene assessed as increase in sensitivity at 20 umol/L by spectrophotometry relative to wild type; type: functional
Saccharomyces cerevisiae [4] = assay: Antimicrobial activity against Saccharomyces cerevisiae expressing msh2 mutant gene assessed as increase in sensitivity at 20 umol/L by spectrophotometry relative to wild type; type: functional
Saccharomyces cerevisiae [5] = assay: Antimicrobial activity against wild type Saccharomyces cerevisiae assessed as increase in sensitivity measured as survival at 20 umol/L by spectrophotometry relative to control; type: functional
Pichia kudriavzevii [6] = assay: Ratio of fluconazole MFC to compound MFC for Candida krusei ATCC 6258 by Alamar blue method; type: functional
Pichia kudriavzevii [7] = assay: Ratio of amphotericin B IC50 to compound IC50 for Candida krusei ATCC 6258 by Alamar blue method; type: functional
Cryptococcus neoformans [8] = assay: Ratio of amphotericin B IC50 to compound IC50 for Cryptococcus neoformans ATCC 90113 by Alamar blue method; type: functional
[9] = tested on: Mycobacterium intracellulare; assay: Antimicrobial activity against Mycobacterium intracellulare ATCC 23068 by Alamar blue method; type: functional, organism-based
Staphylococcus aureus [10] = assay: Antimicrobial activity against methicillin-resistant Staphylococcus aureus ATCC 33591 by Alamar blue method; type: functional, organism-based
Staphylococcus aureus [11] = assay: Antimicrobial activity against Staphylococcus aureus ATCC 29213 by Alamar blue method; type: functional, organism-based; settings: Staphylococcus aureus, ATCC 29213; for IC50: read-out: IC50
Nakaseomyces glabratus [12] = assay: Antimicrobial activity against Candida glabrata by Alamar blue method; type: functional, organism-based
Pichia kudriavzevii [13] = assay: Antimicrobial activity against Candida krusei ATCC 6258 by Alamar blue method; type: functional, organism-based
[14] = Selectivity index, ratio of TC50 for african green monkey Vero cells to IC50 for Cryptococcus neoformans ATCC 90113; type: toxicity, cell-based; settings: read-out: Selectivity Index
[15] = Cytotoxicity against african green monkey Vero cells after 48 hrs by Neutral Red dye assay; type: cell-based; settings: chlorocebus sabaeus, read-out: TC50
Aspergillus fumigatus = assay: Antimicrobial activity against Aspergillus fumigatus ATCC 204305 by Alamar blue method; type: functional, organism-based
Cryptococcus neoformans [16] = assay: Antimicrobial activity against Cryptococcus neoformans ATCC 90113 by Alamar blue method; type: functional, organism-based
Candida albicans = assay: Antimicrobial activity against Candida albicans ATCC 90028 by Alamar blue method; type: functional, organism-based
in vitro = settings: monkey, Vero cells
Description: Selectivity index, ratio of TC50 for african green monkey Vero cells to IC50 for Aspergillus fumigatus ATCC 204305

Saccharomyces cerevisiae [17] = assay: Antimicrobial activity against Saccharomyces cerevisiae expressing msh2 mutant gene assessed as increase in sensitivity measured as survival at 20 umol/L by spectrophotometry relative to wild type; type: functional
Saccharomyces cerevisiae [18] = assay: Antimicrobial activity against Saccharomyces cerevisiae expressing ydj1 mutant gene assessed as sensitivity at 50 umol/L by spectrophotometry; type: functional, organism-based
Saccharomyces cerevisiae [19] = assay: Antimicrobial activity against Saccharomyces cerevisiae expressing snf2 mutant gene assessed as sensitivity at 50 umol/L by spectrophotometry; type: functional, organism-based
Saccharomyces cerevisiae [20] = assay: Antimicrobial activity against Saccharomyces cerevisiae expressing msh2 mutant gene assessed as sensitivity at 50 umol/L by spectrophotometry; type: functional, organism-based
Saccharomyces cerevisiae [21] = assay: Antimicrobial activity against Saccharomyces cerevisiae expressing rad52 mutant gene assessed as sensitivity at 50 umol/L by spectrophotometry; type: functional, organism-based
Saccharomyces cerevisiae [22] = assay: Antimicrobial activity against wild type Saccharomyces cerevisiae assessed as sensitivity at 50 umol/L by spectrophotometry; type: functional, organism-based
Saccharomyces cerevisiae [23] = assay: Antimicrobial activity against Saccharomyces cerevisiae expressing ydj1 mutant gene assessed as sensitivity at 20 umol/L by spectrophotometry; type: functional, organism-based
Saccharomyces cerevisiae [24] = assay: Antimicrobial activity against Saccharomyces cerevisiae expressing msh2 mutant gene assessed as sensitivity at 20 umol/L by spectrophotometry; type: functional, organism-based
[25] = Selectivity index, ratio of TC50 for african green monkey Vero cells to MIC for Aspergillus fumigatus ATCC 204305; type: toxicity, cell-based; settings: read-out: Selectivity Index
Nakaseomyces glabratus [26] = assay: Ratio of fluconazole MFC to compound MFC for Candida glabrata by Alamar blue method; type: functional
Nakaseomyces glabratus [27] = assay: Antimicrobial activity against Candida glabrata at 20 ug/ml by Alamar blue method; type: functional, organism-based
Vero = assay: Cytotoxicity against african green monkey Vero cells at 10 ug/ml after 48 hrs by Neutral Red dye assay; type: cell-based; settings: chlorocebus sabaeus

| Structure (SMILES) | fold change (FC) (Saccharomyces cerevisiae [1]) | IC50 [9] | MBC [9] | MIC [9] | IC50 (Staphylococcus aureus [10]) | MBC (Staphylococcus aureus [10]) | MIC (Staphylococcus aureus [10]) | IC50 (Nakaseomyces glabratus [12]) | MFC (Nakaseomyces glabratus [12]) | MIC (Nakaseomyces glabratus [12]) | IC50 (Pichia kudriavzevii [13]) | MFC (Pichia kudriavzevii [13]) | MIC (Pichia kudriavzevii [13]) | MFC (Aspergillus fumigatus) | MIC (Aspergillus fumigatus) | MFC (Cryptococcus neoformans [16]) | MIC (Cryptococcus neoformans [16]) | IC50 (Candida albicans) | MFC (Candida albicans) | MIC (Candida albicans) | further results |
| --- | --- | --- | --- | --- | --- | --- | --- | --- | --- | --- | --- | --- | --- | --- | --- | --- | --- | --- | --- | --- | --- |
| COc1cccc2c1C(=O)c1c(O)c3c(c(O)c1C2=O)C[C@@](O)(C(=O)CO)C[C@@H]3O[C@H]1C[C@H](N)[C@H](O)[C@H](C)O1 [DOXORUBICIN] | >100 |  |  |  |  |  |  |  |  |  |  |  |  |  |  |  |  |  |  |  |  |
| Clc1ccc(CSc2cc3ccccc3[n+](CCCCCC3CCCCC3)c2)cc1.[I-] | 2.9 | 1.6 µg/mL | 2.5 µg/mL | 2.5 µg/mL | 0.06 µg/mL | 0.31 µg/mL | 0.16 µg/mL | 0.44 µg/mL | 1.3 µg/mL | 1.3 µg/mL | 0.07 µg/mL | 0.16 µg/mL | 0.16 µg/mL | 1.3 µg/mL | 1.3 µg/mL | 0.08 µg/mL | 0.08 µg/mL | 0.33 µg/mL | 0.63 µg/mL | 0.63 µg/mL | fold change (FC) (Saccharomyces cerevisiae [2]): 7.5; fold change (FC) (Saccharomyces cerevisiae [3]): 10; fold change (FC) (Saccharomyces cerevisiae [4]): 1.1; Activity (Saccharomyces cerevisiae [5]): 31%; Ratio IC50 (Pichia kudriavzevii [6]): 310; Ratio IC50 (Pichia kudriavzevii [7]): 3; Ratio IC50 (Cryptococcus neoformans [8]): 4; MBC (Staphylococcus aureus [11]): 0.31 µg/mL; MIC (Staphylococcus aureus [11]): 0.16 µg/mL; IC50 (Staphylococcus aureus [11]): 0.05 µg/mL; selectivity ratio [14]: 26; CC50 at 48 h [15]: 1.3 µg/mL; IC50 (Aspergillus fumigatus): 0.69 µg/mL |
| C[C@@H]1[C@H](O)[C@@H](C)/C=C/C=C/C=C/C=C/C=C/C=C/C=C/[C@H](O[C@@H]2O[C@H](C)[C@@H](O)[C@H](N)[C@@H]2O)C[C@@H]2O[C@](O)(C[C@@H](O)C[C@@H](O)[C@H](O)CC[C@@H](O)C[C@@H](O)CC(=O)O[C@H]1C)C[C@H](O)[C@H]2C(=O)O [AMPHOTERICIN B] |  |  |  |  |  |  |  | 0.22 µg/mL (≈ 0.238 µM) | 1.3 µg/mL (≈ 1.41 µM) | 0.63 µg/mL (≈ 0.682 µM) | 0.22 µg/mL (≈ 0.238 µM) | 1.3 µg/mL (≈ 1.41 µM) | 0.62 µg/mL (≈ 0.671 µM) | 5 µg/mL (≈ 5.41 µM) | 1.3 µg/mL (≈ 1.41 µM) | 0.63 µg/mL (≈ 0.682 µM) | 0.63 µg/mL (≈ 0.682 µM) |  | 1.3 µg/mL (≈ 1.41 µM) | 0.62 µg/mL (≈ 0.671 µM) | IC50 (Cryptococcus neoformans [16]): 0.2 µg/mL (≈ 0.216 µM); selectivity ratio (in vitro): 38 |
| C[n+]1c2ccccc2cc2[n-]c3ccccc3c21 [CRYPTOLEPINE] | 3.5 |  |  |  |  |  |  |  |  |  |  |  |  |  |  | > 25 µg/mL | 12.5 µg/mL (≈ 53.8 µM) |  |  |  | Activity (Saccharomyces cerevisiae [17]): 29%; Activity (Saccharomyces cerevisiae [18]): Active; Activity (Saccharomyces cerevisiae [19]): Active; Activity (Saccharomyces cerevisiae [20]): Active; Activity (Saccharomyces cerevisiae [21]): Active; Activity (Saccharomyces cerevisiae [22]): Active; Activity (Saccharomyces cerevisiae [23]): inactive; Activity (Saccharomyces cerevisiae [24]): inactive; fold change (FC) (Saccharomyces cerevisiae [3]): 1.7; selectivity ratio [25]: < 0.13 |
| [I-].c1ccc2cc(Sc3cc4ccccc4[n+](CCCCCC4CCCCC4)c3)ccc2c1 |  | 4.2 µg/mL | 10 µg/mL | 5 µg/mL | 0.35 µg/mL | 2.5 µg/mL | 0.63 µg/mL | 0.87 µg/mL | 2.5 µg/mL | 2.5 µg/mL | 0.09 µg/mL | 0.63 µg/mL | 0.63 µg/mL | 2.5 µg/mL | 2.5 µg/mL | 0.16 µg/mL | 0.16 µg/mL | 0.42 µg/mL | 2.5 µg/mL | 1.3 µg/mL | Ratio (Nakaseomyces glabratus [26]): 79; Ratio (Pichia kudriavzevii [6]): 79; MBC (Staphylococcus aureus [11]): 2.5 µg/mL; MIC (Staphylococcus aureus [11]): 0.63 µg/mL; IC50 (Staphylococcus aureus [11]): 0.34 µg/mL; selectivity ratio [14]: > 111; IC50 (Aspergillus fumigatus): 1.2 µg/mL; IC50 (Cryptococcus neoformans [16]): 0.09 µg/mL |
| OC(Cn1cncn1)(Cn1cncn1)c1ccc(F)cc1F [FLUCONAZOLE] |  |  |  |  |  |  |  | 27 µg/mL (≈ 88.2 µM) | inactive | inactive | 27 µg/mL (≈ 88.2 µM) | 50 µg/mL (≈ 163 µM) | 50 µg/mL (≈ 163 µM) |  |  | 13 µg/mL (≈ 42.4 µM) | 6.3 µg/mL (≈ 20.6 µM) | 0.12 µg/mL (≈ 0.392 µM) | inactive | inactive | Activity (Nakaseomyces glabratus [27]): inactive; Activity (Vero): Non-toxic; IC50 (Cryptococcus neoformans [16]): 0.21 µg/mL (≈ 0.686 µM) |
| Cc1cccc(CSc2cc3ccccc3[n+](CCCCCC3CCCCC3)c2)c1.[I-] |  | 7.2 µg/mL | 10 µg/mL | 10 µg/mL | 0.72 µg/mL | 2.5 µg/mL | 1.3 µg/mL | 3.3 µg/mL | 10 µg/mL | 5 µg/mL | 0.67 µg/mL | 2.5 µg/mL | 2.5 µg/mL | 10 µg/mL | 10 µg/mL | 0.63 µg/mL | 0.63 µg/mL | 2 µg/mL | 5 µg/mL | 5 µg/mL | MBC (Staphylococcus aureus [11]): 2.5 µg/mL; MIC (Staphylococcus aureus [11]): 1.3 µg/mL; IC50 (Staphylococcus aureus [11]): 0.64 µg/mL; CC50 at 48 h [15]: 5 µg/mL; IC50 (Aspergillus fumigatus): 5.8 µg/mL |
